Results on one compound are retold here after patent US20100135905A1, “ASSESSMENT OF CANCER SUSCEPTIBILITY TO MOLECULAR TARGETED THERAPY BY USE OF RECOMBINANT PEPTIDES” (priority 2004, published 2010).

In the assay the test system is GL261 tumors. As to the kind of experiment: TUNEL stain of intracranial GL261 glioblastoma tumors. The class given is in vivo, C57BL/6 mice. The protocol: The response of cancer cells within the intracranial glioblastoma tumor model, GL261, was also tested in mice. GL261 tumors were implanted into the brains of C57BL/6 mice. After tumor formation (seven days later), mice were treated with GLEEVEC®, 4 Gy or both GLEEVEC® and 4 Gy. Tumors were sectioned and assayed with TUNEL stain to identify apoptotic nuclei. […] The pharmacodynamic response (such as apoptosis) in tumors treated with GLEEVEC® correlated with tumor growth delay.

For `Cc1ccc(NC(=O)c2ccc(CN3CCN(C)CC3)cc2)cc1Nc1nccc(-c2cccnc2)n1` [GLEEVEC®], under “TKI alone”, the “Glioma nuclei stained positive with TUNEL stain” value is recorded as 5%. Moreover, the “Apoptotic nuclei (TUNEL)” value (TKI followed by irradiation (4 Gy)) was found to be 18%.
